{
  "source": "patent US9511072B2",
  "about": "“Methods of modulating cell proliferation and cyst formation in polycystic kidney and liver diseases” (The Medical College of Wisconsin, Inc., priority 2006, dated 2016)",
  "key": {"[1]": {"system": "EGF receptor (EGFR) phosphorylation in REC11 cells", "assay": "Western blot of phosphorylated EGFR in REC11 cystic cells", "format": "cell-based, mouse", "conditions": "10 μM", "text": "REC11 cystic cell line is a conditionally immortalized epithelial collecting tubule (CT) cell line derived from the cystic kidneys of the BPK mouse model of human ARPKD crossed to the ImmortoMouse. The BPK mouse as a human ARPKD model has been described in Nauta J. et al., Pediatr Nephrol 1993, 7:163-172 and Nauta J. et al., Pediatr Res 1995, 37:755-763. The procedures for immortalization, cell isolation, cell culture and the complete phenotypic characterization of this cell line have been described in detail in Sweeney W. E. et al., Am J Physiol C Physiol 2001, 281:C1695-705. All analysis and experiments were performed on REC11 cells grown for a minimum 6 days under non-permissive conditions to eliminate residual Large T. REC12 cell line is a conditionally immortalized epithelial collecting tubule (CT) cell line derived from the wild-type Balb/C littermates. The Balb/C is the strain of mice in which the BPK mutation arose (Nauta J. et al., Pediatr Nephrol 1993, 7:163-172 and Nauta J. et al., Pediatr Res 1995, 37:755-763).\nREC11 cells (FIG. 2, lanes A and B) and control renal epithelial cells (REC12 cells: FIG. 2, lanes C and D) were grown for 10 days. Next, the cells were exposed to vehicle (lanes A and C) or 10 μM HET0016 (lanes B and D) and then harvested for assessment of the expression of phosphorylated EGFR by Western Blot analysis."}, "cystic PCK CT cells": {"system": "cystic PCK CT cells", "assay": "BrdU proliferation of primary cystic PCK collecting tubule cells", "format": "cell-based, rat", "conditions": "10 μM, 36 hours; vehicle 28.5%±1%", "experimental": "Renal CT cells from the PCK rat were isolated as described in Sweeney W. E. et al., Am J Physiol C Physiol, 2001, 281:C1695-705, using monoclonal F-13 a principal cells specific surface marker (Fejes-Toth N et al., J Tiss Cult Meth 1991, 13:179-184).\nTo determine the level of proliferation in the cystic PCK CT cells, the cells were incubated with HET-0016 (10 μM) or vehicle for 36 hours. Three hours prior to the harvesting of the cells, 5-bromo-2′-deoxyuridine (BrdU) at a concentration of 30 μM was added to determine the level of cell cycle inhibition. The cells were subsequently methanol fixed and BrdU-positive cells were identified by immunohistology with biotinylated monoclonal anti-BrdU antibody (Zymed, South San Francisco, Calif.). Data were expressed as the percentage of BrdU-labeled cells per 500 counted cells. In the vehicle treated group, 28.5%±1% (n=3) were labeled with BrdU. In the HET-0016 treated group, 10.8%±1% (n=3) were labeled with BrdU."}, "Cyp4a12": {"biological_target": "T1, Cyp4a12 (Mus musculus, UniProt Q91WL5)", "T1 construct": "Murine full-length Cyp4a10 (cDNA clone MGC:58977) and Cyp4a12 (cDNA clone MGC:25972) cDNA clones were purchased from ATCC; expressed in transfected cells; host or cells: conditionally immortalized non-cystic Balb/C (+/+) mouse renal epithelial cells transduced with the lentiviral vector pHR(+)c.Ub.CYP4A12.R(-)W(+); protein lysates", "T1 sequence (Q91WL5 38-508)": "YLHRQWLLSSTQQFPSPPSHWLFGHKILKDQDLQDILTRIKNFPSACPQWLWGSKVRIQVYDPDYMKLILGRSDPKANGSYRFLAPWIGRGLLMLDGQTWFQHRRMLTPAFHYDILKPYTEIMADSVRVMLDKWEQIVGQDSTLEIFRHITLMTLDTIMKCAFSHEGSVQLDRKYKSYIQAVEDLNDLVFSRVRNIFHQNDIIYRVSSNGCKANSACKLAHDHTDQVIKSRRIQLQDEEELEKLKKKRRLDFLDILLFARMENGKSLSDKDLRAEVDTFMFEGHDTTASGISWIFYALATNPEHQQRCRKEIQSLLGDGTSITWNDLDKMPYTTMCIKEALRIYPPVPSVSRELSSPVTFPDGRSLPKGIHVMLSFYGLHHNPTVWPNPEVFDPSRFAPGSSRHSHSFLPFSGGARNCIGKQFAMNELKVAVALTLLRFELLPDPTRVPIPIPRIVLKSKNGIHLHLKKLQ", "assay": "20-HETE production assay with lysates of Cyp4a12 over-expressing Balb/C cells", "format": "biochemical, murine", "conditions": "1 μM during the 20-HETE production assay", "experimental": "Microsomes were isolated from the cystic BPK and non-cystic Balb/C mouse kidneys as described by Ito O et al. (Am J Physiol Regul Integr Comp Physiol, 280:R822-30, 2001). For the BPK and Balb/C cells, protein lysates were harvested by homogenization and subsequent sonication of the cell pellets. For the 20-HETE production assay, the isolated protein (500 μg) was incubated in 0.5 mL of 100 mM potassium phosphate buffer containing 40 μM cold arachidonic acid and 2 mM NADPH. In some samples, the 20-HETE synthesis inhibitor, HET-0016, was added at a concentration of 1 μM. The reaction was incubated at 37° C. and equilibrated with 100% O2 for 30 minutes. The reaction was stopped by acidification to pH 3.5 with 1M formic acid. The lipids were extracted in the presence of 20-HETE-d6 (2 ng) using 3:1 ethyl acetate:water and dried down under nitrogen. The samples were reconstituted in 1:1 methanol:water and the production of 20-HETE was measured using a liquid chromatograph-triple quadrupole mass spectrometer (ABI 3000, Applied Biosystems, Inc., Foster City, Calif.) as described in Williams J M et al. Hypertension, 49:687-94, 2007.\nThe functional activity of the cytochrome P450 4A isoforms was determined using liquid chromatography coupled to mass spectrometry in the 20-HETE production assay (FIG. 7B). […]"}},
  "data": [
    {"substance": "N-hydroxy-N-(4-butyl-2-methylphenyl)-formamidine [HET0016]", "values": [
      {"measurement": "phosphorylation of EGFR", "setting": "[1]", "value": "reduced the phosphorylation of EGFR"},
      {"measurement": "cells labeled with BrdU (per 500 counted cells)", "setting": "cystic PCK CT cells", "value": "10.8%±1%"},
      {"measurement": "inhibition of 20-HETE synthesis by over-expressed Cyp4a12", "setting": "Cyp4a12", "value": "> 70", "unit": "%"}
    ]}
  ]
}
